Source: PMC10257182, “Discovery of senolytics using machine learning” (Nature Communications, 2023)
“And” between values parts separate entries of the source, which are not always exact repeats. Identical values can stand only once.

Columns and labels:
Assay type in all cases: cell-based, human
[1] = tested on: proliferating IMR90 cells; test: BrdU incorporation proliferation assay; conditions: IMR90 cells; single replicates (SUP FIG 9G)
Method: 5-bromo-2′-deoxyuridine (BrdU) incorporation was used to measure the number of cells actively replicating DNA. Cells were incubated with 10 μM BrdU (85811, Sigma) for 18 h. After that, cells were fixed with 4% Paraformaldehyde, permeabilised, blocked and then stained for immunofluorescence using BrdU primary antibody (555627 BD Pharmigen), Alexa fluor secondary for detection, and DAPI staining for cell counting. Acquisition was done with a Nikon TI2 microscope and analysis was performed with ImageJ for cell counting.

[2] = tested on: p16 and p21 mRNA in IMR90 cells at passage 27; test: p16 and p21 mRNA expression by RT-qPCR, replicative senescence; conditions: Replicative senescence; Replicative senescence DMSO = 1; n 3
Method: (§1) Total RNA was isolated using RNAeasy kit (Quiagen). cDNA was generated with reverse transcriptase iScript (Bio-Rad). RT-qPCR was performed using SYBR Select Master Mix (Applied Biosystems) in OneStepPlus detection system (Applied Biosystems). Oligos for amplification were: NOXA Fw-[…] and Rv-[…]; b-ACTIN Fw-[…] and Rv-[…]; IL1a Fw-[…] and Rv- […]; IL1b Fw-[…] and Rv- […]; IL8 Fw-[…] and Rv-[…]; p16 Fw-CGGTCGGAGGCCGATCCAG and Rv- […]; p21Fw-[…] and Rv- […].

[3] = tested on: IL1α, IL1β and IL8 mRNA in IMR90 ER:RAS cells; test: IL1α, IL1β and IL8 mRNA expression by RT-qPCR, OIS; conditions: ER:RAS cells, RAS OLE group mean, RAS C (DMSO) = 1
Method: as §1

[4] = tested on: IL1α, IL1β and IL8 mRNA in IMR90 cells at passage 27; test: IL1α, IL1β and IL8 mRNA expression by RT-qPCR, replicative senescence; conditions: Replicative senescence, OLE group mean, DMSO = 1
Method: as §1

[5] = tested on: p16 and p21 mRNA in IMR90 ER:RAS cells; test: p16 and p21 mRNA expression by RT-qPCR, OIS; conditions: ER:RAS cells; ER:RAS DMSO = 1; n 4
Method: as §1

[6] = tested on: non-senescent control A549 cells; test: Nuclei count senolytic assay, TIS model, non-senescent control cells; conditions: for % Cell Survival: control cells, single replicate
Method: (§2) We performed a second validation of the effectiveness of our machine learning models using a different stressor. We focused on therapy-induced senescence (TIS, Supplementary Fig. 6a), where human epithelial cancerous cells (A549) were induced to become senescent by addition of etoposide. Cells were treated with 100 μM etoposide for 48 h, followed by another three days of exposure to media in standard conditions.
(§3) We performed experimental validation of the compounds with z-score > 8 (Fig. 2e). […] We employed two cellular models of senescence: one of OIS and a second one of TIS. For the OIS case, we utilised IMR90 ER:RAS cells with 4-OHT at 100 nM. […] For the TIS model, we used A549 cells with etoposide at 100 μM. The exposure of the cells to etoposide lasted 48 h, after which period the cells were cultivated for a further three days with normal media.
(§4) IMR90 (CCL-186) human foetal lung fibroblasts and A549 (CCL-185) human lung adenocarcinoma cells were obtained from the American Type Culture Collection (ATCC, Manassas, VA). The cell lines were confirmed to be mycoplasma negative (Lonza MycoAlert, cat #LT07-118). IMR90 ER:RAS is a derivative of IMR90 cells expressing a switchable version of oncogenic H-Ras[84]. IMR90 ER:RAS and A549 cells were maintained in Dulbecco’s Modified Eagle Medium (DMEM, ThermoFisher) supplemented with foetal bovine serum (10%), L-glutamine (2 mM, ThermoFisher), and antibiotic-antimycotic solution (1%, ThermoFisher) and incubated under standard tissue culture conditions (37 °C and 5% CO2). For induction of the senescent phenotype, IMR90-ER:RAS cells were cultured in hydroxytamoxifen (4-OHT) (Sigma) added media at 100 nM final concentration. IMR90 were kept in culture for over 27 passages for replicative senescence. Cells were tested for mycoplasma on a regular basis.
(§5) Cells were seeded (50 μL per well) into 384-well plates (IMR90 ER:RAS cells in Nunc Optical Bottom Polybase Microplates [#142761, Thermo Scientific, Rochester, NY] and A549 cells in CELLSTAR Cell Culture Microplates [#781091, Greiner Bio-One, Kremsmünster, Austria]). Cells were incubated under standard tissue culture conditions for 24 h before the addition of compounds. Passage 14 IMR90 ER:RAS cells were seeded at 1300 cells per well in the control condition, and at 1600 cells per well in the senescent case. Passage 34 A549 cells were seeded at 7000 cells per well in the control condition, and at 10,000 cells per well in the senescent case.
(§6) Dose response plates were prepared with a DMSO control and a 10-point […] concentration range, and added to the compounds using a D300e digital dispenser (Tecan Trading AG, Switzerland) at a final concentration of between 10 μM and 10 nM. Every screened condition was carried out in triplicate. After 72 h of incubation with exposure to the compounds, cells were fixed by the addition of an equal volume of formaldehyde (8%, 50 μL; #BP531-500, Fisher Bioreagents, Fisher Scientific, Loughborough, Leicestershire) to the existing media, incubated at room temperature (30 min), and washed three times in phosphate-buffered saline (PBS). Cells were then permeabilised in Triton-X100 (0.1%, 50 μL) and incubated at room temperature (30 min) followed by three more washes with PBS.
(§7) Cells were stained with Hoechst 33342 for nuclei count (excitation/emission wavelength at 387/447 […], DAPI channel, original concentration at 10 mg/ml, final concentration at 2 μg/ml; H1399, Molecular Probes, Eugene, OR). The staining solution was prepared in bovine serum albumin solution (10%). The staining solution was added to each well (30 μL) and incubated in the dark at room temperature (30 min), followed by three washes with PBS and no final aspiration. Plates were foil sealed.
(§8) Plates were imaged on an ImageXpress micro XLS (Molecular Devices, Eugene, OR) equipped with a robotic plate loader (Scara4, PAA, UK).

[7] = tested on: senescent A549 cells (etoposide-induced); test: Nuclei count senolytic assay, therapy-induced senescence (TIS) model, senescent cells; conditions: for % Cell Survival: senescence cells, single replicate
Method: as §2, §3, §4, §5, §6, §7, §8

SMILES: COc1cc([C@@H]2c3cc4c(cc3[C@@H](O[C@@H]3O[C@@H]5CO[C@@H](C)O[C@H]5[C@H](O)[C@H]3O)[C@H]3COC(=O)[C@H]23)OCO4)cc(OC)c1O [Etoposide]
- % BrdU positive cells [1]: 3.24% and 11.47% and 6.41% and 6.29%

SMILES: COC1CC(OC2CCC3(C)C(CCC4C3CCC3(C)C(C5=CC(=O)OC5)C(OC(C)=O)CC43O)C2)OC(C)C1O (stereo not drawn) [OLE]
- p16 mRNA expression, mean (Test details, Mean 2) [2]: 0.5298
- p21 mRNA expression, mean (Test details, Mean 2) [2]: 0.4442
- Il1a mRNA expression, mean (Mean 2) ([3]; n=4): 0.4376
- Il8 mRNA expression, mean (Mean 2) ([3]; n=5): 0.3662
- Il1b mRNA expression, mean (Mean 2) ([3]; n=6): 0.7128
- Il1a mRNA expression, mean (Mean 2) ([4]; n=3): 0.411
- Il8 mRNA expression, mean (Mean 2) ([4]; n=3): 0.5871
- Il1b mRNA expression, mean (Mean 2) ([4]; n=4): 0.4327
- p16 mRNA expression, mean (Test details, Mean 2) [5]: 0.5169
- p21 mRNA expression, mean (Test details, Mean 2) [5]: 0.5115

SMILES: CC1(C)CCC(c2ccc(Cl)cc2)=C(CN2CCN(c3ccc(C(=O)NS(=O)(=O)c4ccc(N[C@H](CCN5CCOCC5)CSc5ccccc5)c(S(=O)(=O)C(F)(F)F)c4)cc3)CC2)C1 [navitoclax, reference compound]
- viability at 10 µM ([6]; Homo sapiens, A549, log (dose) [M] -5, Control cells, mean, read-out: Mean % Cell Survival): 61.6%
- viability at 4.68 µM ([6]; Homo sapiens, A549, log (dose) [M] -5.33, Control cells, mean, read-out: Mean % Cell Survival): 105%
- viability at 2.19 µM ([6]; Homo sapiens, A549, log (dose) [M] -5.66, Control cells, mean, read-out: Mean % Cell Survival): 107%
- viability at 1 µM ([6]; Homo sapiens, A549, log (dose) [M] -6, Control cells, mean, read-out: Mean % Cell Survival): 129%
- viability at 0.468 µM ([6]; Homo sapiens, A549, log (dose) [M] -6.33, Control cells, mean, read-out: Mean % Cell Survival): 116%
- viability at 0.219 µM ([6]; Homo sapiens, A549, log (dose) [M] -6.66, Control cells, mean, read-out: Mean % Cell Survival): 109%
- viability at 0.1 µM ([6]; Homo sapiens, A549, log (dose) [M] -7, Control cells, mean, read-out: Mean % Cell Survival): 97.7%
- viability at 0.0468 µM ([6]; Homo sapiens, A549, log (dose) [M] -7.33, Control cells, mean, read-out: Mean % Cell Survival): 98.7%
- viability at 0.0219 µM ([6]; Homo sapiens, A549, log (dose) [M] -7.66, Control cells, mean, read-out: Mean % Cell Survival): 96.8%
- viability at 0.01 µM ([6]; Homo sapiens, A549, log (dose) [M] -8, Control cells, mean, read-out: Mean % Cell Survival): 98.9%
- IC50 ([6]; Homo sapiens, TIS model, non-senescent A549, nuclei count, 72 h): 10.2 µM
- % Cell Survival ([6]; log (dose) [M] -5): 52.0394% and 75.3687% and 57.3758%
- % Cell Survival ([6]; log (dose) [M] -5.33): 116.878% and 75.1475% and 123.277%
- % Cell Survival ([6]; log (dose) [M] -5.66): 112.518% and 117.404% and 91.8458%
- % Cell Survival ([6]; log (dose) [M] -6): 119.058% and 135.177% and 132.987%
- % Cell Survival ([6]; log (dose) [M] -6.33): 128.692% and 108.112% and 112.083%
- % Cell Survival ([6]; log (dose) [M] -6.66): 114.276% and 101.991% and 109.489%
- % Cell Survival ([6]; log (dose) [M] -7): 92.6864% and 99.5575% and 100.964%
- % Cell Survival ([6]; log (dose) [M] -7.33): 97.6793% and 98.2301% and 100.074%
- % Cell Survival ([6]; log (dose) [M] -7.66): 95.0774% and 99.4838% and 95.7746%
- % Cell Survival ([6]; log (dose) [M] -8): 98.1716% and 98.2301% and 100.445%
- viability at 10 µM ([7]; Homo sapiens, A549, log (dose) [M] -5, Senescent cells, mean, read-out: Mean % Cell Survival): 6.32%
- viability at 4.68 µM ([7]; Homo sapiens, A549, log (dose) [M] -5.33, Senescent cells, mean, read-out: Mean % Cell Survival): 13.6%
- viability at 2.19 µM ([7]; Homo sapiens, A549, log (dose) [M] -5.66, Senescent cells, mean, read-out: Mean % Cell Survival): 17.1%
- viability at 1 µM ([7]; Homo sapiens, A549, log (dose) [M] -6, Senescent cells, mean, read-out: Mean % Cell Survival): 27.7%
- viability at 0.468 µM ([7]; Homo sapiens, A549, log (dose) [M] -6.33, Senescent cells, mean, read-out: Mean % Cell Survival): 43.7%
- viability at 0.219 µM ([7]; Homo sapiens, A549, log (dose) [M] -6.66, Senescent cells, mean, read-out: Mean % Cell Survival): 65.4%
- viability at 0.1 µM ([7]; Homo sapiens, A549, log (dose) [M] -7, Senescent cells, mean, read-out: Mean % Cell Survival): 94%
- viability at 0.0468 µM ([7]; Homo sapiens, A549, log (dose) [M] -7.33, Senescent cells, mean, read-out: Mean % Cell Survival): 91.8%
- viability at 0.0219 µM ([7]; Homo sapiens, A549, log (dose) [M] -7.66, Senescent cells, mean, read-out: Mean % Cell Survival): 109%
- viability at 0.01 µM ([7]; Homo sapiens, A549, log (dose) [M] -8, Senescent cells, mean, read-out: Mean % Cell Survival): 103%
- IC50 ([7]; Homo sapiens, TIS model, etoposide-induced senescent A549, nuclei count, 72 h): 0.44 µM
- concentration at which a senolytic effect was reached ([7]; TIS A549, Hoechst labelling, marginal or no effect on normal cells): 1 µM
- % Cell Survival ([7]; log (dose) [M] -5): 4.269% and 4.259% and 10.4231%
- % Cell Survival ([7]; log (dose) [M] -5.33): 11.4818% and 14.3371% and 14.9601%
- % Cell Survival ([7]; log (dose) [M] -5.66): 15.9961% and 17.9964% and 17.29%
- % Cell Survival ([7]; log (dose) [M] -6): 23.7488% and 24.4151% and 34.8866%
- % Cell Survival ([7]; log (dose) [M] -6.33): 46.0255% and 39.6521% and 45.3096%
- % Cell Survival ([7]; log (dose) [M] -6.66): 63.9352% and 60.5879% and 71.5512%
- % Cell Survival ([7]; log (dose) [M] -7): 88.2728% and 86.8026% and 106.99%
- % Cell Survival ([7]; log (dose) [M] -7.33): 62.8557% and 104.139% and 108.461%
- % Cell Survival ([7]; log (dose) [M] -7.66): 92.002% and 113.377% and 120.969%
- % Cell Survival ([7]; log (dose) [M] -8): 100.736% and 105.159% and 103.556%
